For data set [1], the system named is Bcl3 G6A (DNA, G4) CGGGGGGGCCGGAGGCGGGGAGGCGGGCGG
Description: CD melting at 284 nm. The note with it: 100 mM K+ (KCl); 10 mM Tris-HCl pH 7.5; 20 μM ligand, ligand:G4 2:1; stabilised.

Data set [2] concerns Bcl3 GI/IVA (DNA, G4) CGGAAAGGCCGGGGGCGGGGAGGCAAACGG
Briefly: CD melting at 284 nm. The note with it: 100 mM K+ (KCl); 10 mM Tris-HCl pH 7.5; 20 μM ligand, ligand:G4 2:1; stabilised.

Data set [3] has as its system Bcl3 G6/8A (DNA, G4) CGGGGGGGCCGGAGGCGGAGAGGCGGGCGG
Description: CD melting at 284 nm. The note with it: 100 mM K+ (KCl); 10 mM Tris-HCl pH 7.5; 20 μM ligand, ligand:G4 2:1; stabilised.

The test system of data set [4] is Bcl3 promoter WT (30-nt, G-rich positive strand) (DNA, G4) CGGGGGGGCCGGGGGCGGGGAGGCGGGCGG
Briefly: ThT fluorescence turn-on (490 nm). The note with it: 100 mM K+ (KCl); 10 mM Tris-HCl pH 7.5, 25 °C; 0.5 μM ThT, 1 μM DNA.

The test system of data set [5] is dsBcl3 GI/IVA (DNA, duplex) CAGGAAACCCCTGGGGCGTACGGGTGGCCCCGGAAAGGCCGGGGGCGGGGAGGCAAACGGCCGGCACCGCCCCGGCCGACAAAAGTCCCT/AGGGACTTTTGTCGGCCGGGGCGGTGCCGGCCGTTTGCCTCCCCGCCCCCGGCCTTTCCGGGGCCACCCGTACGCCCCAGGGGTTTCCTG
Description: NMM fluorescence turn-on (610 nm). The note with it: 1 mM K+ (KCl); 10% PEG8000; also 100 mM KCl without PEG; 25 °C; 1 μM NMM, 2 μM DNA; no peak.

For data set [6], the system named is dsBcl3 WT (90-bp dsBcl3-G4) (DNA, G4) CAGGAAACCCCTGGGGCGTACGGGTGGCCCCGGGGGGGCCGGGGGCGGGGAGGCGGGCGGCCGGCACCGCCCCGGCCGACAAAAGTCCCT/AGGGACTTTTGTCGGCCGGGGCGGTGCCGGCCGCCCGCCTCCCCGCCCCCGGCCCCCCCGGGGCCACCCGTACGCCCCAGGGGTTTCCTG
Briefly: NMM fluorescence turn-on (610 nm). The note with it: 1 mM K+ (KCl); 10% PEG8000; also 100 mM KCl without PEG; 25 °C; 1 μM NMM, 2 μM DNA.

Data set [7] has as its system dsBcl3 G6/8A (DNA, duplex) CAGGAAACCCCTGGGGCGTACGGGTGGCCCCGGGGGGGCCGGAGGCGGAGAGGCGGGCGGCCGGCACCGCCCCGGCCGACAAAAGTCCCT/AGGGACTTTTGTCGGCCGGGGCGGTGCCGGCCGCCCGCCTCTCCGCCTCCGGCCCCCCCGGGGCCACCCGTACGCCCCAGGGGTTTCCTG
Briefly: NMM fluorescence turn-on (610 nm). The note with it: 1 mM K+ (KCl); 10% PEG8000; also 100 mM KCl without PEG; 25 °C; 1 μM NMM, 2 μM DNA; no peak.

Data set [8] concerns Bcl3 G6/8A (DNA, G4) CGGGGGGGCCGGAGGCGGAGAGGCGGGCGG
Description: CD melting at 264 nm. The note with it: 100 mM K+ (KCl); 10 mM Tris-HCl pH 7.5; 20 μM ligand, ligand:G4 2:1; stabilised.

The test system of data set [9] is Bcl3 G6A (DNA, G4) CGGGGGGGCCGGAGGCGGGGAGGCGGGCGG
Briefly: CD melting at 264 nm. The note with it: 100 mM K+ (KCl); 10 mM Tris-HCl pH 7.5; 20 μM ligand, ligand:G4 2:1; stabilised.

Data set [10] has as its system Bcl3 GI/IVA (DNA, G4) CGGAAAGGCCGGGGGCGGGGAGGCAAACGG
Description: CD melting at 264 nm. The note with it: 100 mM K+ (KCl); 10 mM Tris-HCl pH 7.5; 20 μM ligand, ligand:G4 2:1; stabilised.

The target of data set [11] is T1, SP1 (UniProt P08047 1-785). Briefly: EMSA; annealed in KCl, purified Inter 1; Hill 3.53; EMSA: 10 mM HEPES-NaOH pH 7.3, 50 mM KCl, 5 mM MgCl2, 0.5 mM DTT, 5% glycerol, 0.5 mg/mL BSA, 1 h, gel at 4 C; BLI: PBS, room temperature; oligos annealed in 10 mM Tris-HCl pH 7.5 +/- 100 mM KCl. The note with it: protein: commercial. On the technique in general: A gel shift assay detects complexes by their altered migration in electrophoresis.
T1 sequence (P08047 whole entry): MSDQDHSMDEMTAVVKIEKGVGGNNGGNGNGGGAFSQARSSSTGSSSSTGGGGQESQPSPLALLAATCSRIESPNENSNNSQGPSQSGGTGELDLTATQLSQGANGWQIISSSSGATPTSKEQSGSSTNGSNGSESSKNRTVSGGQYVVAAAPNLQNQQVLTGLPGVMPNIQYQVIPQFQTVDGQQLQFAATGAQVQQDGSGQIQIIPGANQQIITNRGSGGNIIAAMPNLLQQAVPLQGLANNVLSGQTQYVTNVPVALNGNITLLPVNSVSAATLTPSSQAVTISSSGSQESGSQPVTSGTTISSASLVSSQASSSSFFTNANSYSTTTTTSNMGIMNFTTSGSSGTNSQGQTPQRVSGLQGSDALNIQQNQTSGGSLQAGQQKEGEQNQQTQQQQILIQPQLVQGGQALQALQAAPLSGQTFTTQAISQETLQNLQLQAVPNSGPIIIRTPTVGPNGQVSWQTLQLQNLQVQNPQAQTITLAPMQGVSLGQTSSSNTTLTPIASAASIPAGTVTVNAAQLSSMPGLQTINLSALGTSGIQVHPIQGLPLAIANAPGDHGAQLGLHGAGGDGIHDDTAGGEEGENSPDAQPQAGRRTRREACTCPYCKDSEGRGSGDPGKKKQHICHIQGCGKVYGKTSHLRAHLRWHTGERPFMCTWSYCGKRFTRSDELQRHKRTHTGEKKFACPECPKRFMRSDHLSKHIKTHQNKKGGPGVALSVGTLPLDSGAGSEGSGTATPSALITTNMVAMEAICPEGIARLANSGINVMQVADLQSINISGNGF

Data set [12] has as its target T1, SP1. Description: EMSA; annealed without KCl; EMSA: 10 mM HEPES-NaOH pH 7.3, 50 mM KCl, 5 mM MgCl2, 0.5 mM DTT, 5% glycerol, 0.5 mg/mL BSA, 1 h, gel at 4 C; BLI: PBS, room temperature; oligos annealed in 10 mM Tris-HCl pH 7.5 +/- 100 mM KCl. The note with it: protein: commercial; single strand.
Data set [13] has as its target T1, SP1. Description: EMSA; annealed in 100 mM KCl; Hill 4.42; EMSA: 10 mM HEPES-NaOH pH 7.3, 50 mM KCl, 5 mM MgCl2, 0.5 mM DTT, 5% glycerol, 0.5 mg/mL BSA, 1 h, gel at 4 C; BLI: PBS, room temperature; oligos annealed in 10 mM Tris-HCl pH 7.5 +/- 100 mM KCl. The note with it: protein: commercial; label: 5' biotin (BLI); G4, parallel, intra- and intermolecular.
Data set [14] deals with T1, SP1. Briefly: BLI; annealed in 100 mM KCl; local 1:1 fit at 457 nM SP1; not truly 1:1; EMSA: 10 mM HEPES-NaOH pH 7.3, 50 mM KCl, 5 mM MgCl2, 0.5 mM DTT, 5% glycerol, 0.5 mg/mL BSA, 1 h, gel at 4 C; BLI: PBS, room temperature; oligos annealed in 10 mM Tris-HCl pH 7.5 +/- 100 mM KCl. The note with it: protein: commercial; label: 5' biotin (BLI); G4, parallel, intra- and intermolecular. (In BLI a coated tip is dipped into the sample, and binding shifts an interference pattern.)

The target in data set [15] is T1, SP1. Briefly: EMSA; annealed with KCl; Kd only in Fig S13B; EMSA: 10 mM HEPES-NaOH pH 7.3, 50 mM KCl, 5 mM MgCl2, 0.5 mM DTT, 5% glycerol, 0.5 mg/mL BSA, 1 h, gel at 4 C; BLI: PBS, room temperature; oligos annealed in 10 mM Tris-HCl pH 7.5 +/- 100 mM KCl. The note with it: protein: commercial; G4.

In the case of `C[n+]1ccc(-c2c3nc(c(-c4cc[n+](C)cc4)c4ccc([nH]4)c(-c4cc[n+](C)cc4)c4nc(c(-c5cc[n+](C)cc5)c5ccc2[nH]5)C=C4)C=C3)cc1`, the binding entry in data set [1], in data set [2] and in data set [3] was “yes” throughout.
On to `Cc1ccc2c(c1)sc(-c1ccc(N(C)C)cc1)[n+]2C`, for which the binding result in data set [4] is “yes”.
With `CCc1c(C)c2cc3nc(cc4nc(cc5c(CC)c(C)c(cc1[nH]2)n5C)C(C)=C4CCC(=O)O)C(CCC(=O)O)=C3C`, the binding entry in [5] is recorded as “no”; in data set [6], “yes”; in data set [7] it was “no”.
Regarding `NCCOc1cc(C(=O)Nc2cc(OCCN)c3ccccc3n2)nc(C(=O)Nc2cc(OCCN)c3ccccc3n2)c1`, the binding entry in data set [8], in data set [9] and in data set [10] was “yes” throughout.
Broadly, the Kd is the concentration at which binding is half-saturated. High values mean weaker binding, low ones tighter binding. AGAGACCGGGGGCGGGGAGACGAG (structured_DNA) [PCNG4 Inter 1, annealed with KCl] registered a Kd with SP1 [11] of 24.5 nM.
Take GGGUCCGGGCCGGGUGGG (ssRNA) [G4 RNA annealed without KCl]: in the data set with SP1 [12], the binding result is given as “binds”.
On to GGGGGCCGGGGGCGGGGAGGCGGG (structured_DNA) [Bcl3 WT 24-nt, annealed with KCl (G4)], for which the Kd with SP1 [13] amounted to 19.1 nM; with SP1 [14] it was 2.36 nM.
GGGUCCGGGCCGGGUGGG (structured_RNA) [G4 RNA (KCl)]: the binding result with SP1 [15] is on record as “binds”.

The values are drawn from article PMC12397910.
